Key:
[1] = molecular target: T1, TLR7 (Homo sapiens, UniProt Q9NYK1); assay: NFκB-luciferase reporter assay in HEK293 cells transfected with human TLR7 (HEK293-TLR7); assay type: cell-based; parameters: expressed in transfected cells; host or cells: HEK293 (ATCC CRL-1573), pIRES vector, G-418 selected; details: HEK293-TLR7, 10 μM IRM, 16 hours
T1 sequence (Q9NYK1 27-1049): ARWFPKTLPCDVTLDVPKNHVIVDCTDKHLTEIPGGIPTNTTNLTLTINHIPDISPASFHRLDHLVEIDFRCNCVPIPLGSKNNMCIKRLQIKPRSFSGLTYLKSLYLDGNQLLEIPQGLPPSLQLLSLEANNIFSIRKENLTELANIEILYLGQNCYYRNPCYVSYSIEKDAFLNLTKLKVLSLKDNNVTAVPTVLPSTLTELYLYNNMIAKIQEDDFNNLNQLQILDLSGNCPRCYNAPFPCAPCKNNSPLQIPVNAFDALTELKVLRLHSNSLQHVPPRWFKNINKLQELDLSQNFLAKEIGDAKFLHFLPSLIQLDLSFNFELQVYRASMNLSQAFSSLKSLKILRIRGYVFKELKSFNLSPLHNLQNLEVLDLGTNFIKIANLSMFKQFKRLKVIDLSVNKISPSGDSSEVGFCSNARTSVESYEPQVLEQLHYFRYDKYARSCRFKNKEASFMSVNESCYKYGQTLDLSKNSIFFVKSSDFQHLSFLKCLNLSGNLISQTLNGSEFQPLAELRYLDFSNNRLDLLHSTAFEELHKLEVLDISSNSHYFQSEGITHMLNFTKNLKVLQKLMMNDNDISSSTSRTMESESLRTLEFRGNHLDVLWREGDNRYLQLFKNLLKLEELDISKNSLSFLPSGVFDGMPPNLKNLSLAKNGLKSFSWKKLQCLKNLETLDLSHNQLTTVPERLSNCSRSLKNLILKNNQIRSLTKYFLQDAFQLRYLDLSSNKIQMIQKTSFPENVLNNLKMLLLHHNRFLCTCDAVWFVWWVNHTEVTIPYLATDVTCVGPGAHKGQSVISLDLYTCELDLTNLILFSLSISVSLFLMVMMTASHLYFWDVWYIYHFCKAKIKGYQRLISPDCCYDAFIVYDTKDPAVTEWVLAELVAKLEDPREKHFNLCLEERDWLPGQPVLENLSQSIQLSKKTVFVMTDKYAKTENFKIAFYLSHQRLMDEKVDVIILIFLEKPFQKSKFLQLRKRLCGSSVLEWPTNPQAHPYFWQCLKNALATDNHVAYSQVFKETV
Method: (§1) A compound was identified as increasing cellular activity mediated through a given TLR if it induced at least a two-fold increase in NFκB-induced luciferase signal compared to the control.
(§2) HEK293 medium was prepared from 90% Minimum Essential Medium (MEM) with 2 mM L-glutamine and Earle's Balanced Salt Solution (Invitrogen Corp., Rockville, Md.) adjusted to contain 1.5 g/L sodium bicarbonate, 0.1 mM non-essential amino acids, and 1.0 mM sodium pyruvate; 10% heat-inactivated fetal calf serum. HEK293 cells were cultured by incubating cells in HEK293 medium overnight at 37° C., 8% CO2.
(§3) The cells were co-transfected with (1) pIRES (BD Biosciences Clontech, Palo Alto, Calif.) either (a) unmodified (HEK293-vector), (b) containing an expressible human TLR7 gene (HEK293-TLR7), or (c) containing an expressible human TLR8 gene (HEK293-TLR8), and (2) NFκB-luc reporter (Stratagene, La Jolla, Calif.) in a 10:1 ratio with Fugene 6 transfection reagent (Roche Diagnostics Corp., Indianapolis, Ind.) following the manufacturer's instructions.
(§4) The cells were stimulated with 1 μL of IRM compounds at 1 mM in DMSO (final IRM concentration of 10 μM) or 1 μL DMSO as a control. The plates were then incubated an additional 16 hours at 37° C., 5% CO2. The luciferase signal was read using the LucLite kit (Packard Instrument Co., Meriden, Conn.). Luminescence was measured on an LMAX luminometer (Molecular Devices Corp., Sunnyvale, Calif.).

[2] = molecular target: T2, human TLR8 (Homo sapiens, UniProt Q9NR97); assay: NFκB-luciferase reporter assay in HEK293 cells transfected with human TLR8 (HEK293-TLR8); assay type: cell-based; details: HEK293-TLR8, 10 μM IRM, 16 hours
T2 construct: expressed in transfected cells; host or cells: HEK293 (ATCC CRL-1573), pIRES vector, G-418 selected
T2 sequence (Q9NR97 27-1041): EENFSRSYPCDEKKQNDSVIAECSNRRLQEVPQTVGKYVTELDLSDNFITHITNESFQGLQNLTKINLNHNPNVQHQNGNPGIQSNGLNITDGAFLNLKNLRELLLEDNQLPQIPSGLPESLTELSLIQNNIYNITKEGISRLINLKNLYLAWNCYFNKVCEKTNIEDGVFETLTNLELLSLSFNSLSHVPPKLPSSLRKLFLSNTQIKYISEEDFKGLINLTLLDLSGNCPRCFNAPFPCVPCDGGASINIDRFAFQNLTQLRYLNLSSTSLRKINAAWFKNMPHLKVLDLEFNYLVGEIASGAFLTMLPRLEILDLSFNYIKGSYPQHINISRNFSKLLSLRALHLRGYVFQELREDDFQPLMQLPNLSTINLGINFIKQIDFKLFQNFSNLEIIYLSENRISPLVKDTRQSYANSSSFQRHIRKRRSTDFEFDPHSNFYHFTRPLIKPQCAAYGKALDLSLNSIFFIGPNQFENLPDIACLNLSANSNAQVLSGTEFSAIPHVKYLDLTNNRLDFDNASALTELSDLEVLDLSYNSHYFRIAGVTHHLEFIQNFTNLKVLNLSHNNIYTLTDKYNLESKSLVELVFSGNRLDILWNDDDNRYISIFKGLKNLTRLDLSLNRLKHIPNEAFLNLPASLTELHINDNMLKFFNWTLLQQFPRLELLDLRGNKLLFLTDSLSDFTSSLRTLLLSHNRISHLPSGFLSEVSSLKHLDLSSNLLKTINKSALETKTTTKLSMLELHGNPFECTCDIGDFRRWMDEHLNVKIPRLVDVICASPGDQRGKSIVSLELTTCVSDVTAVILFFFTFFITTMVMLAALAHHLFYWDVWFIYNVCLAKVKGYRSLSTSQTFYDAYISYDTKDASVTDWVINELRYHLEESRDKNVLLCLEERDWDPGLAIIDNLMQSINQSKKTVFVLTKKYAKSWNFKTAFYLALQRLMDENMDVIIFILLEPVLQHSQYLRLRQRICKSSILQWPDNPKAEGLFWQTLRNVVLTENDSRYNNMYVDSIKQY
Method: as §1, §2, §3, §4

| SMILES | TLR7: fold increase of NFκB-induced luciferase signal compared to a DMSO control [1] | TLR8: fold increase of NFκB-induced luciferase signal compared to a DMSO control [2] |
| --- | --- | --- |
| Cc1nc2c(N)nc3ccccc3c2n1CCOCCCc1cccnc1 [IRM2, 2-methyl-1-[2-(3-pyridin-3-ylpropoxy)ethyl]-1H-imidazo[4,5-c]quinolin-4-amine] | 4.16 fold increase | 0.91 fold increase |
| Cc1nc2c(N)nc3ccccc3c2n1CCOCc1ccccc1 [IRM4, 1-[2-(benzyloxy)ethyl]-2-methyl-1H-imidazo[4,5-c]quinolin-4-amine] | 4.98 fold increase | 1.06 fold increase |
| COCCc1nc2c(N)nc3ccccc3c2n1CCCCCCCCNC(=O)Nc1ccccc1 [IRM5, N-{8-[4-amino-2-(2-methoxyethyl)-1H-imidazo[4,5-c]quinolin-1-yl]octyl}-N′-phenylurea] | 3.38 fold increase | 0.94 fold increase |
| COCCc1nc2c(N)nc3ccccc3c2n1CCCNS(=O)(=O)c1ccc(C)cc1 [IRM7, N-{3-[4-amino-2-(2-methoxyethyl)-1H-imidazo[4,5-c]quinolin-1-yl]propyl}-4-methylbenzenesulfonamide] | 6.22 fold increase | 0.86 fold increase |
| CCCCc1nc2c(N)nc3cccnc3c2n1CCNC(=O)C(N)CC(C)C (stereo not drawn) [IRM10, N^1-[2-(4-amino-2-butyl-1H-imidazo[4,5-c][1,5]naphthyridin-1-yl)ethyl]-2-amino-4-methylpentanamide] | 0.64 fold increase | 9.24 fold increase |
| Nc1nc2ccccc2c2c1ncn2CCCCNC(=O)c1ccccc1Oc1ccccc1 [IRM11, N^1-[4-(4-amino-1H-imidazo[4,5-c]quinolin-1-yl)butyl]-2-phenoxybenzamide] | 1.44 fold increase | 10.69 fold increase |
| CCCCc1nc2c(N)nc3ccccc3c2n1CCNS(=O)(=O)CCC [IRM12, N^1-[2-(4-amino-2-butyl-1H-imidazo[4,5-c]quinolin-1-yl)ethyl]-1-propanesulfonamide] | 1.16 fold increase | 8.84 fold increase |
| CCc1nc2c(N)nc3ccccc3c2n1CCOCCNC(=O)Nc1ccccc1 [IRM13, N-{2-[2-(4-amino-2-ethyl-1H-imidazo[4,5-c]quinolin-1-yl)ethoxy]ethyl}-N′-phenylurea] | 0.86 fold increase | 6.25 fold increase |
| CCOCc1nc2c(N)nc3ccccc3c2n1CCNC(=O)Nc1cccc(C#N)c1 [IRM15, N-{2-[4-amino-2-(ethoxymethyl)-1H-imidazo[4,5-c]quinolin-1-yl]ethyl}-N′-(3-cyanophenyl)urea] | 0.92 fold increase | 5.52 fold increase |
| COCCc1nc2c(N)nc3ccccc3c2n1CC(C)(C)O [IRM17, 4-amino-α,α-dimethyl-2-methoxyethyl-1H-imidazo[4,5-c]quinoline-1-ethanol] | 2.53 fold increase | 10.18 fold increase |
| CCCCc1nc2c(N)nc(C)c(C)c2n1CC(C)(C)O [IRM18, 4-amino-2-butyl-α,α,6,7-tetramethyl-1H-imidazo[4,5-c]pyridine-1-ethanol] | 5.06 fold increase | 2.77 fold increase |
| CCc1nc2c(N)nc3ccccc3c2n1CCCCS(=O)(=O)c1cc(Cl)cc(Cl)c1 [IRM20, 1-{4-[(3,5-dichlorophenyl)sulfonyl]butyl}-2-ethyl-1H-imidazo[4,5-c]quinolin-4-amine] | 4.22 fold increase | 6.04 fold increase |

Reference: patent US20040171086A1, “Selective modulation of TLR-mediated biological activity” (3M Innovative Properties Company, priority 2003, published 2004)
